# Data published in patent publication US10441566B2, “Use of butylidenephthalide” (EVERFRONT BIOTECH INC., priority 2016, dated 2019).
# Key:
# Format in all cases: cell-based
# [1] = system: fibrotic buccal mucosal fibroblasts (fBMFs); experiment: Transwell cell migration assay; settings: BP 0, 25, or 50 μg/mL, 24 hours migration, FIGS. 3A and 3B
# Method: In this experiment, a transwell cell migration assay system (Transwell® system; purchased from Corning company, UK) and a polycarbonate membrane with a pore size of 8 μm (purchased from Corning company, UK) were used to further investigate whether butylidenephthalide (BP) can inhibit the abilities of oral submucosal tissue cells to crawl and invade.
# First, the cell medium containing 10% FBS (fetal bovine serum) was added into the lower chamber, and an apparatus of polycarbonate membrane was placed on the bottom of a cell culture plate, i.e., upper chamber. On the other hand, the BMF-1, BMF-2, fBMF-1, and fBMF-2 provided by [Preparation example A] (2×10^4 cells/group) were evenly mixed with a 250 μL serum-free medium that is externally added with butylidenephthalide (BP) by a concentration of 0, 25, or 50 μg/mL. Then, the mixtures thus obtained were respectively added into the upper chambers. Thereafter, the whole transwell cell migration assay system was placed in an incubator to induce cell migration for 24 hours. […] Then, the polycarbonate membrane were fixed with 4% paraformaldehyde for 10 minutes and stained with 0.1% crystal violet. […] The cell numbers on the membrane were calculated into the relative cell migration ability (%) by using the results of BMFs not treated with butylidenephthalide (BP) as a basis.
# S100A4 gene = experiment: Q-PCR expression of myofibroblast marker gene S100A4 in fBMFs; settings: fBMF-1 and fBMF-2, BP 0, 25, or 50 μg/mL, 48 hours, with the increment in concentration, FIG. 4
# Description: (§1) Two groups of buccal mucosal fibroblasts obtained from normal oral buccal mucosa (hereinafter abbreviated as “BMF-1” and “BMF-2”; or collectively called “BMFs”), and two groups of fibrotic buccal mucosal fibroblasts obtained from fibrotic oral buccal mucosa (hereinafter abbreviated as “fBMF-1” and “fBMF-2”; or collectively called “fBMFs”) were respectively subjected to the following procedures: seeding the cells into a 24-well plate by a concentration of 2×10^4 cells/well to cultivate the cells to reach a 80% confluence, and then respectively treating the cells with different concentrations (0, 12.5, 25, 50, 100, or 200 μg/mL) of butylidenephthalide (BP) for 48 hours. […]
# (§2) It is known that during the process of the fibrosis of tissue, the tissue cells would differentiate and become myofibroblasts, wherein the α-SMA gene, Col1a1 gene, and S100A4 gene are the maker genes of myofibroblasts. Thus, in this experiment, a quantitative real-time polymerase chain reaction (Q-PCR) was conducted to investigate whether butylidenephthalide (BP) can inhibit the expressions of α-SMA gene, Col1a1 gene, and S100A4 gene in oral submucosal tissue cells. […]
# [2] = system: buccal mucosal fibroblasts (BMFs; BMF-1, BMF-2); experiment: MTT cytotoxicity evaluation, relative viability of buccal mucosal fibroblasts; settings: BP at a concentration of no more than 50 μg/mL, 48 hours, FIG. 1
# Description: as §1
# [3] = system: fibrotic buccal mucosal fibroblasts (fBMFs; fBMF-1, fBMF-2); experiment: MTT cytotoxicity evaluation, relative viability of fibrotic buccal mucosal fibroblasts; settings: BP at a concentration of no more than 50 μg/mL, 48 hours, FIG. 1
# Description: as §1
# α-SMA gene = experiment: Q-PCR expression of myofibroblast marker gene α-SMA in fBMFs; settings: fBMF-1 and fBMF-2, BP 0, 25, or 50 μg/mL, 48 hours, with the increment in concentration, FIG. 4
# Description: as §1, §2
# [4] = system: fibrotic buccal mucosal fibroblasts (fBMFs); experiment: Collagen gel contraction assay; settings: fBMFs in collagen gel, BP 0, 25, or 50 μg/mL, 48 hours, with the increment in concentration, FIGS. 5A and 5B
# Method: The BMF-1, BMF-2, fBMF-1, and fBMF-2 provided by [Preparation example A] were respectively dissolved in 0.5 mL of 2 mg/mL collagen solution (purchased from Sigma-Aldrich), and the mixtures thus obtained were moved into a 24-well plate. Then, the 24-well plate was placed in an incubator at […] and 5% CO2 for 2 hours to coagulate the collagen gels. The gels thus obtained were respectively called “BMFs group”, and “fBMFs group” gels. Thereafter, the coagulated gels were disengaged from the culture plate, and 0.5 mL of a medium containing different concentrations (0, 25, or 50 μg/mL) of butylidenephthalide (BP) was added thereinto to incubate with the gels for 48 hours. The contraction of gel in each group were observed and photographed. Finally, the relative gel area (%) of each “fBMFs group” was calculated by using the image-analyzed software, ImageJ (National Institutes of Health, USA) and using the results of “BMFs group” not being treated with butylidenephthalide (BP) as a basis.
# Col1a1 gene = experiment: Q-PCR expression of myofibroblast marker gene Col1a1 in fBMFs; settings: fBMF-1 and fBMF-2, BP 0, 25, or 50 μg/mL, 48 hours, with the increment in concentration, FIG. 4
# Description: as §1, §2
# Snail gene = experiment: Q-PCR expression of EMT marker gene Snail in fBMFs; settings: fBMF-1 and fBMF-2, BP 0, 25, or 50 μg/mL, 48 hours, with the increment in concentration, FIG. 2
# Description: as §1
# (§3) It is known that during the process of epithelial-mesenchymal transition (EMT), the expressions of Twist gene, Snail gene, and ZEB1 gene in the cells will increase, and thus, these genes are known as the marker genes of EMT. In this experiment, quantitative real-time polymerase chain reaction (Q-PCR) was conducted to investigate whether butylidenephthalide (BP) can affect the expressions of Twist gene, Snail gene, and ZEB1 gene in oral submucosal tissue cells. […]
# Twist gene = experiment: Q-PCR expression of EMT marker gene Twist in fBMFs; settings: fBMF-1 and fBMF-2, BP 0, 25, or 50 μg/mL, 48 hours, with the increment in concentration, FIG. 2
# Description: as §1, §3
# ZEB1 gene = experiment: Q-PCR expression of EMT marker gene ZEB1 in fBMFs; settings: fBMF-1 and fBMF-2, BP 0, 25, or 50 μg/mL, 48 hours, with the increment in concentration, FIG. 2
# Description: as §1, §3
compound,measurement,setting,value
CCCC=C1OC(=O)c2ccccc21 [butylidenephthalide],cells which migrated from the upper chamber to the lower chamber (relative migration ability),[1],decrease with the increment in the concentration
same,expression of S100A4 gene,S100A4 gene,significantly decreased
same,growth (relative viability) of BMFs,[2],will not be affected
same,growth (relative viability) of fBMFs,[3],will not be affected
same,expression of α-SMA gene,α-SMA gene,significantly decreased
same,gel contraction (relative gel area),[4],significantly mitigate
same,expression of Col1a1 gene,Col1a1 gene,significantly decreased
same,expression of Snail gene,Snail gene,significantly decreased
same,expression of Twist gene,Twist gene,significantly decreased
same,expression of ZEB1 gene,ZEB1 gene,significantly decreased
